From patent publication US6355799B1, “Substituted benzene compounds, process for their preparation, and herbicidal and defoliant compositions containing them” (ISK Americas Incorporated, priority 1997, dated 2002)

Legend:
Assay type in all cases: in vivo
[1] = test system: redroot pigweed (Amaranthus retroflexus, AMARE); assay: Pre-emerge test, greenhouse herbicide activity screening; details: rated 14 days after application, 0 = no damage, 100 = complete death
Method in brief: (§1)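 Rating: 0–100 visual injury, 14 DAA. Application: acetone, 187 l/ha, 15–1000 g ai/ha, flat-fan track sprayer with nozzle 40–45 cm above soil or canopy. Post-emerge runs used 0.25% v/v surfactant on 2–3 leaf plants.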

[2] = test system: barnyardgrass (Echinochloa crus-galli, ECHCG); assay: as above; details: rated 14 days after application, 0 = no damage, 100 = complete death
Method in brief: (§2)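 Fourteen days after spraying, crop and weed injury was graded visually from 0, no effect, to 100, every plant dead. Test substances were dissolved in acetone and applied at 15–1000 g ai/ha with a flat-fan nozzle. Application was either pre-emergence, one day after sowing, or post-emergence at the 2–3 leaf stage.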

[3] = test system: green foxtail (Setaria viridis, SETVI); assay: as above; details: rated 14 days after application, 0 = no damage, 100 = complete death
Method in brief: as §2

[4] = test system: ivyleaf morningglory (Ipomoea hederacea, IPOHE); assay: as above; details: rated 14 days after application, 0 = no damage, 100 = complete death
Method in brief: as §2

[5] = test system: johnsongrass (Sorghum halepense, SORHA); assay: as above; details: rated 14 days after application, 0 = no damage, 100 = complete death
Method in brief: as §2

[6] = test system: lambsquarters (Chenopodium album, CHEAL); assay: as above; details: rated 14 days after application, 0 = no damage, 100 = complete death
Method in brief: as §2

[7] = test system: large crabgrass (Digitaria sanguinalis, DIGSA); assay: as above; details: rated 14 days after application, 0 = no damage, 100 = complete death
Method in brief: as §2

[8] = test system: sicklepod (Cassia obtusifolia, CASOB); assay: as above; details: rated 14 days after application, 0 = no damage, 100 = complete death
Method in brief: as §2

[9] = test system: velvetleaf (Abutilon theophrasti, ABUTH); assay: as above; details: rated 14 days after application, 0 = no damage, 100 = complete death
Method in brief: as §2

[10] = test system: field corn (Zea mays L., var. Dekalb 535, CORN); assay: Pre-emerge test, crop safety; details: rated 14 days after application, 0 = no damage, 100 = complete death
Method in brief: (§3)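 Herbicidal damage is scored 0 (none) to 100 (complete plant death) two weeks after a simulated field spray. Rates span 15–1000 g ai/ha, delivered in acetone at 187 l/ha. For post-emergence treatments, plants have 2–3 leaves and the spray carries 0.25% v/v non-ionic surfactant.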

[11] = test system: upland rice (Oryza sp., var. Tebonnet, RICE); assay: Pre-emerge test, crop safety; details: rated 14 days after application, 0 = no damage, 100 = complete death
Method in brief: as §3

[12] = test system: barnyardgrass (Echinochloa crus-galli, ECHCG); assay: Post-emerge test, greenhouse herbicide activity screening; details: post-emerge, 14 days after application, rating scale 0-100
Method in brief: as §1

[13] = test system: green foxtail (Setaria viridis, SETVI); assay: as above; details: post-emerge, 14 days after application, rating scale 0-100
Method in brief: as §1

[14] = test system: ivyleaf morningglory (Ipomoea hederacea, IPOHE); assay: as above; details: post-emerge, 14 days after application, rating scale 0-100
Method in brief: as §1

[15] = test system: johnsongrass (Sorghum halepense, SORHA); assay: as above; details: post-emerge, 14 days after application, rating scale 0-100
Method in brief: as §1

[16] = test system: lambsquarters (Chenopodium album, CHEAL); assay: as above; details: post-emerge, 14 days after application, rating scale 0-100
Method in brief: as §1

[17] = test system: large crabgrass (Digitaria sanguinalis, DIGSA); assay: as above; details: post-emerge, 14 days after application, rating scale 0-100
Method in brief: as §1

[18] = test system: redroot pigweed (Amaranthus retroflexus, AMARE); assay: as above; details: post-emerge, 14 days after application, rating scale 0-100
Method in brief: as §1

[19] = test system: sicklepod (Cassia obtusifolia, CASOB); assay: as above; details: post-emerge, 14 days after application, rating scale 0-100
Method in brief: as §1

[20] = test system: velvetleaf (Abutilon theophrasti, ABUTH); assay: as above; details: post-emerge, 14 days after application, rating scale 0-100
Method in brief: as §1

[21] = test system: field corn (Zea mays L., var. Dekalb 535, CORN); assay: Post-emerge test, crop safety; details: post-emerge, 14 days after application, rating scale 0-100
Method in brief: as §2

[22] = test system: upland rice (Oryza sp., var. Tebonnet, RICE); assay: Post-emerge test, crop safety; details: post-emerge, 14 days after application, rating scale 0-100
Method in brief: as §2

COc1c(Cl)cc(F)c(-n2c(=O)cc(C(F)(F)F)n(C)c2=O)c1NC(=O)COCc1ccccc1 [2-89]
Pre-emerge Herbicidal Activity, phytotoxicity rating (0-100), AMARE ([1]; 63 g ai/ha): 100 | Pre-emerge Herbicidal Activity, phytotoxicity rating (0-100), AMARE ([1]; 250 g ai/ha): 100 | Pre-emerge Herbicidal Activity, phytotoxicity rating (0-100), ECHCG ([2]; 63 g ai/ha): 50 | Pre-emerge Herbicidal Activity, phytotoxicity rating (0-100), ECHCG ([2]; 250 g ai/ha): 90 | Pre-emerge Herbicidal Activity, phytotoxicity rating (0-100), SETVI ([3]; 63 g ai/ha): 100 | Pre-emerge Herbicidal Activity, phytotoxicity rating (0-100), SETVI ([3]; 250 g ai/ha): 100 | Pre-emerge Herbicidal Activity, phytotoxicity rating (0-100), IPOHE ([4]; 63 g ai/ha): 95 | Pre-emerge Herbicidal Activity, phytotoxicity rating (0-100), IPOHE ([4]; 250 g ai/ha): 100 | Pre-emerge Herbicidal Activity, phytotoxicity rating (0-100), SORHA ([5]; 63 g ai/ha): 60 | Pre-emerge Herbicidal Activity, phytotoxicity rating (0-100), SORHA ([5]; 250 g ai/ha): 90 | Pre-emerge Herbicidal Activity, phytotoxicity rating (0-100), CHEAL ([6]; 63 g ai/ha): 100 | Pre-emerge Herbicidal Activity, phytotoxicity rating (0-100), CHEAL ([6]; 250 g ai/ha): 100 | Pre-emerge Herbicidal Activity, phytotoxicity rating (0-100), DIGSA ([7]; 63 g ai/ha): 99 | Pre-emerge Herbicidal Activity, phytotoxicity rating (0-100), DIGSA ([7]; 250 g ai/ha): 100 | Pre-emerge Herbicidal Activity, phytotoxicity rating (0-100), CASOB ([8]; 63 g ai/ha): 95 | Pre-emerge Herbicidal Activity, phytotoxicity rating (0-100), CASOB ([8]; 250 g ai/ha): 100 | Pre-emerge Herbicidal Activity, phytotoxicity rating (0-100), ABUTH ([9]; 63 g ai/ha): 100 | Pre-emerge Herbicidal Activity, phytotoxicity rating (0-100), ABUTH ([9]; 250 g ai/ha): 100 | Pre-emerge phytotoxicity rating (0-100), crop damage, CORN ([10]; 63 g ai/ha): 10 | Pre-emerge phytotoxicity rating (0-100), crop damage, CORN ([10]; 250 g ai/ha): 30 | Pre-emerge phytotoxicity rating (0-100), crop damage, RICE ([11]; 63 g ai/ha): 40 | Pre-emerge phytotoxicity rating (0-100), crop damage, RICE ([11]; 250 g ai/ha): 90 | phytotoxicity rating ECHCG ([12]; 63 g ai/ha): 0 | phytotoxicity rating ECHCG ([12]; 250 g ai/ha): 10 | phytotoxicity rating SETVI ([13]; 63 g ai/ha): 20 | phytotoxicity rating SETVI ([13]; 250 g ai/ha): 20 | phytotoxicity rating IPOHE ([14]; 63 g ai/ha): 90 | phytotoxicity rating IPOHE ([14]; 250 g ai/ha): 100 | phytotoxicity rating SORHA ([15]; 63 g ai/ha): 0 | phytotoxicity rating SORHA ([15]; 250 g ai/ha): 10 | phytotoxicity rating CHEAL ([16]; 63 g ai/ha): 60 | phytotoxicity rating CHEAL ([16]; 250 g ai/ha): 90 | phytotoxicity rating DIGSA ([17]; 63 g ai/ha): 0 | phytotoxicity rating DIGSA ([17]; 250 g ai/ha): 0 | phytotoxicity rating AMARE ([18]; 63 g ai/ha): 70 | phytotoxicity rating AMARE ([18]; 250 g ai/ha): 100 | phytotoxicity rating CASOB ([19]; 63 g ai/ha): 50 | phytotoxicity rating CASOB ([19]; 250 g ai/ha): 60 | phytotoxicity rating ABUTH ([20]; 63 g ai/ha): 100 | phytotoxicity rating ABUTH ([20]; 250 g ai/ha): 100 | phytotoxicity rating CORN ([21]; 63 g ai/ha): 0 | phytotoxicity rating CORN ([21]; 250 g ai/ha): 0 | phytotoxicity rating RICE ([22]; 63 g ai/ha): 60 | phytotoxicity rating RICE ([22]; 250 g ai/ha): 70

COc1c(Cl)cc(F)c(-n2c(=O)cc(C(F)(F)F)n(C)c2=O)c1NC(=O)C=Cc1ccco1 [2-92]
Pre-emerge Herbicidal Activity, phytotoxicity rating (0-100), AMARE ([1]; 63 g ai/ha): 50 | Pre-emerge Herbicidal Activity, phytotoxicity rating (0-100), AMARE ([1]; 250 g ai/ha): 100 | Pre-emerge Herbicidal Activity, phytotoxicity rating (0-100), ECHCG ([2]; 63 g ai/ha): 0 | Pre-emerge Herbicidal Activity, phytotoxicity rating (0-100), ECHCG ([2]; 250 g ai/ha): 20 | Pre-emerge Herbicidal Activity, phytotoxicity rating (0-100), SETVI ([3]; 63 g ai/ha): 30 | Pre-emerge Herbicidal Activity, phytotoxicity rating (0-100), SETVI ([3]; 250 g ai/ha): 90 | Pre-emerge Herbicidal Activity, phytotoxicity rating (0-100), IPOHE ([4]; 63 g ai/ha): 30 | Pre-emerge Herbicidal Activity, phytotoxicity rating (0-100), IPOHE ([4]; 250 g ai/ha): 100 | Pre-emerge Herbicidal Activity, phytotoxicity rating (0-100), SORHA ([5]; 63 g ai/ha): 0 | Pre-emerge Herbicidal Activity, phytotoxicity rating (0-100), SORHA ([5]; 250 g ai/ha): 40 | Pre-emerge Herbicidal Activity, phytotoxicity rating (0-100), CHEAL ([6]; 63 g ai/ha): 100 | Pre-emerge Herbicidal Activity, phytotoxicity rating (0-100), CHEAL ([6]; 250 g ai/ha): 100 | Pre-emerge Herbicidal Activity, phytotoxicity rating (0-100), DIGSA ([7]; 63 g ai/ha): 0 | Pre-emerge Herbicidal Activity, phytotoxicity rating (0-100), DIGSA ([7]; 250 g ai/ha): 20 | Pre-emerge Herbicidal Activity, phytotoxicity rating (0-100), CASOB ([8]; 63 g ai/ha): 40 | Pre-emerge Herbicidal Activity, phytotoxicity rating (0-100), CASOB ([8]; 250 g ai/ha): 100 | Pre-emerge Herbicidal Activity, phytotoxicity rating (0-100), ABUTH ([9]; 63 g ai/ha): 100 | Pre-emerge Herbicidal Activity, phytotoxicity rating (0-100), ABUTH ([9]; 250 g ai/ha): 100 | Pre-emerge phytotoxicity rating (0-100), crop damage, CORN ([10]; 63 g ai/ha): 0 | Pre-emerge phytotoxicity rating (0-100), crop damage, CORN ([10]; 250 g ai/ha): 20 | Pre-emerge phytotoxicity rating (0-100), crop damage, RICE ([11]; 63 g ai/ha): 0 | Pre-emerge phytotoxicity rating (0-100), crop damage, RICE ([11]; 250 g ai/ha): 10 | phytotoxicity rating ECHCG ([12]; 63 g ai/ha): 0 | phytotoxicity rating ECHCG ([12]; 250 g ai/ha): 0 | phytotoxicity rating SETVI ([13]; 63 g ai/ha): 0 | phytotoxicity rating SETVI ([13]; 250 g ai/ha): 0 | phytotoxicity rating IPOHE ([14]; 63 g ai/ha): 20 | phytotoxicity rating IPOHE ([14]; 250 g ai/ha): 100 | phytotoxicity rating SORHA ([15]; 63 g ai/ha): 0 | phytotoxicity rating SORHA ([15]; 250 g ai/ha): 0 | phytotoxicity rating CHEAL ([16]; 63 g ai/ha): 20 | phytotoxicity rating CHEAL ([16]; 250 g ai/ha): 80 | phytotoxicity rating DIGSA ([17]; 63 g ai/ha): 0 | phytotoxicity rating DIGSA ([17]; 250 g ai/ha): 0 | phytotoxicity rating AMARE ([18]; 63 g ai/ha): 20 | phytotoxicity rating AMARE ([18]; 250 g ai/ha): 50 | phytotoxicity rating CASOB ([19]; 63 g ai/ha): 0 | phytotoxicity rating CASOB ([19]; 250 g ai/ha): 30 | phytotoxicity rating ABUTH ([20]; 63 g ai/ha): 100 | phytotoxicity rating ABUTH ([20]; 250 g ai/ha): 100 | phytotoxicity rating CORN ([21]; 63 g ai/ha): 0 | phytotoxicity rating CORN ([21]; 250 g ai/ha): 30 | phytotoxicity rating RICE ([22]; 63 g ai/ha): 10 | phytotoxicity rating RICE ([22]; 250 g ai/ha): 60
